Legend:
AMSH = molecular target: T1, AMSH (Homo sapiens, UniProt O95630); assay: Platform comparison of DUB substrates, signal to background; format: biochemical; conditions: DUB 10 nM; signal at 30 minutes; Ub-LUC 100 nM, DUB-Glo substrate 20 μM, Ub-AMC/Ub-rho 250 nM
T1 sequence (O95630 1-424): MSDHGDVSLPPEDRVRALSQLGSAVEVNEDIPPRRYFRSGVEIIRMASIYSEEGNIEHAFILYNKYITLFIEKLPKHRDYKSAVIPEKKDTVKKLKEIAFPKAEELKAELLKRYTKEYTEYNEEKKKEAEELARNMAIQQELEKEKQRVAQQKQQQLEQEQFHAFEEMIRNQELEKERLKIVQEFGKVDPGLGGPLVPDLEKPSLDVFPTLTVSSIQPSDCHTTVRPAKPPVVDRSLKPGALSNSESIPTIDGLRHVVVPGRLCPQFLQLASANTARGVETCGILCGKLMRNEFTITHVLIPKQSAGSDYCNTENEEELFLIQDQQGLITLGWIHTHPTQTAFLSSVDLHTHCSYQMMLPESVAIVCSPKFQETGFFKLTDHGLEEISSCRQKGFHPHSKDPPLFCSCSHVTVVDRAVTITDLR
Procedure: (§1) For Ub-AMC and Ub-Rhodamine110, all enzymes were diluted into 50 mM Tris, pH 8.0, 5 mM DTT, 0.05% CHAPS to a final concentration of 10 nM. […] Either Ub-AMC or Ub-Rhodamine110 (final reaction concentration equal to 250 nM) were diluted into 50 mM Tris, pH 8.0, 5 mM DTT, 0.05% (w/v) CHAPS. […] For Ub-Rhodamine110, fluorescence was monitored with filters corresponding to excitation at 485 nm and emission at 531 nm.

Ataxin3 = Ataxin3 (Homo sapiens, UniProt P54252); assay: as above; format: biochemical; conditions: DUB 10 nM; signal at 30 minutes; Ub-LUC 100 nM, DUB-Glo substrate 20 μM, Ub-AMC/Ub-rho 250 nM
Procedure: as §1

Ataxin3-like = molecular target: T2, Ataxin3-like (Homo sapiens, UniProt Q9H3M9); assay: as above; format: biochemical; conditions: DUB 10 nM; signal at 30 minutes; Ub-LUC 100 nM, DUB-Glo substrate 20 μM, Ub-AMC/Ub-rho 250 nM
T2 sequence (Q9H3M9 1-355): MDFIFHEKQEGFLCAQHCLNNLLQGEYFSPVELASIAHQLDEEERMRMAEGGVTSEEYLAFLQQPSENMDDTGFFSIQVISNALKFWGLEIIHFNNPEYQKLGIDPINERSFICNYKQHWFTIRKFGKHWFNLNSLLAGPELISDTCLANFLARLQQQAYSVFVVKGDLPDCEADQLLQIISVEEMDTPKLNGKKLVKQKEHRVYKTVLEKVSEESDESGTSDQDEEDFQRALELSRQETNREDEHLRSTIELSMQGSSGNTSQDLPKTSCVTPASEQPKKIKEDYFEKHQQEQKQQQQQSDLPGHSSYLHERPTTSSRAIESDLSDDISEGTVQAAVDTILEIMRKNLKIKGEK
Procedure: as §1

JosD1 = JosD1 (Homo sapiens, UniProt Q15040); assay: as above; format: biochemical; conditions: DUB 10 nM; signal at 30 minutes; Ub-LUC 100 nM, DUB-Glo substrate 20 μM, Ub-AMC/Ub-rho 250 nM
Procedure: as §1

JosD2 = molecular target: T3, JosD2 (Homo sapiens, UniProt Q8TAC2); assay: as above; format: biochemical; conditions: DUB 10 nM; signal at 30 minutes; Ub-LUC 100 nM, DUB-Glo substrate 20 μM, Ub-AMC/Ub-rho 250 nM
T3 sequence (Q8TAC2 1-188): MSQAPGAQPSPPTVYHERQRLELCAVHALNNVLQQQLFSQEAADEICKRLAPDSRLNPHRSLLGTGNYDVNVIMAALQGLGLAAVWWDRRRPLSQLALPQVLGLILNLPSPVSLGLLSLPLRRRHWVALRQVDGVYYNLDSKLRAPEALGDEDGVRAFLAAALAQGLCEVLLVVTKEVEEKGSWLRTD
Procedure: as §1

Otub2 = molecular target: T4, Otub2 (Homo sapiens, UniProt Q96DC9); assay: as above; format: biochemical; conditions: DUB 10 nM; signal at 30 minutes; Ub-LUC 100 nM, DUB-Glo substrate 20 μM, Ub-AMC/Ub-rho 250 nM
T4 sequence (Q96DC9 1-234): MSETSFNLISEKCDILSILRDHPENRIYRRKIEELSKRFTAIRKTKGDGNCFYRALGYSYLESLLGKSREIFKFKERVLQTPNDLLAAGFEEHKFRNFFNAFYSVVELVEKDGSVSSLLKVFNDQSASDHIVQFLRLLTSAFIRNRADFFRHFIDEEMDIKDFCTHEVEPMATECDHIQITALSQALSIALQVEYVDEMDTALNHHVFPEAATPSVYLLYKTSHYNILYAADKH
Procedure: as §1

UCHL5 = molecular target: T5, UCHL5 (Homo sapiens, UniProt Q9Y5K5); assay: as above; format: biochemical; conditions: DUB 10 nM; signal at 30 minutes; Ub-LUC 100 nM, DUB-Glo substrate 20 μM, Ub-AMC/Ub-rho 250 nM
T5 sequence (Q9Y5K5 1-329): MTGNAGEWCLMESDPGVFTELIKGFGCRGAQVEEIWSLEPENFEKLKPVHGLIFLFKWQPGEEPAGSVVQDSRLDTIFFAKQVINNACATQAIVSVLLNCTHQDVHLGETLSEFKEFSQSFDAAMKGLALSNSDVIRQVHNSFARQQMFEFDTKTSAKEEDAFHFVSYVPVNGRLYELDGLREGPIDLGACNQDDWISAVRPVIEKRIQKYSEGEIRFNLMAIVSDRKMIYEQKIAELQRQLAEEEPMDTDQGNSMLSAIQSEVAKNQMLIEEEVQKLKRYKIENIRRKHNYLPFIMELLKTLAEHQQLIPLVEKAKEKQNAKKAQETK
Procedure: as §1

[1] = test system: Otub2, JosD1, JosD2, AMSH, Ataxin3, Ataxin3-like, UCHL5, USP20, and USP14; assay: Substrate comparison on panel of nine isopeptidases; format: biochemical; conditions: seven of nine DUBs (exceptions JosD2 and UCHL5)
Procedure: as §1

USP14 = USP14 (Homo sapiens, UniProt P54578); assay: Platform comparison of DUB substrates, signal to background; format: biochemical; conditions: DUB 10 nM; signal at 30 minutes; Ub-LUC 100 nM, DUB-Glo substrate 20 μM, Ub-AMC/Ub-rho 250 nM
Procedure: as §1

isopeptidase T = molecular target: T6, isopeptidase T (Homo sapiens, UniProt P45974); conditions: Dang et al., 1998; cited from earlier work
T6 sequence (P45974 1-858): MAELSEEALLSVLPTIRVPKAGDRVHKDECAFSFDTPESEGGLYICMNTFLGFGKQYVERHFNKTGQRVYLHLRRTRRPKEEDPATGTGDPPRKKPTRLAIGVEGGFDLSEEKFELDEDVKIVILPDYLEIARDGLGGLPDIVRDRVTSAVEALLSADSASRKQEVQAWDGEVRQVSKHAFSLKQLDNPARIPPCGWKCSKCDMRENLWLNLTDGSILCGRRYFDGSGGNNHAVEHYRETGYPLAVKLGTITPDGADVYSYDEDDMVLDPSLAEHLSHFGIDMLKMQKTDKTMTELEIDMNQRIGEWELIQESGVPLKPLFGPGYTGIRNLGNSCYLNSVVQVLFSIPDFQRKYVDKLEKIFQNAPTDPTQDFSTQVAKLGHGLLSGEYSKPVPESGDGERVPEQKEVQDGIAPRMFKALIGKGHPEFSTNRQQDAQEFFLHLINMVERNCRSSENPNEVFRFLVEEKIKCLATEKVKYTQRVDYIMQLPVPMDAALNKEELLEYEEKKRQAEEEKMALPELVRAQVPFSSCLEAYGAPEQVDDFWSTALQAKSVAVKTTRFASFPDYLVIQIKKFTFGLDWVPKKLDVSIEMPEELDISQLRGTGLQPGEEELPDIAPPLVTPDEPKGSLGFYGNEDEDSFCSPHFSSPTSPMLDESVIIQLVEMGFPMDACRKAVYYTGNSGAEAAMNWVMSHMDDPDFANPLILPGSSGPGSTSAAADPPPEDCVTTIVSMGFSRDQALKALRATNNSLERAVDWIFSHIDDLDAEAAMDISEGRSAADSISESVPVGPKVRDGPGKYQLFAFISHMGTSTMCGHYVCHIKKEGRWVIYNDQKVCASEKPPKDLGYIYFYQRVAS

Ataxin3, sequence (P54252 whole entry, species assumed): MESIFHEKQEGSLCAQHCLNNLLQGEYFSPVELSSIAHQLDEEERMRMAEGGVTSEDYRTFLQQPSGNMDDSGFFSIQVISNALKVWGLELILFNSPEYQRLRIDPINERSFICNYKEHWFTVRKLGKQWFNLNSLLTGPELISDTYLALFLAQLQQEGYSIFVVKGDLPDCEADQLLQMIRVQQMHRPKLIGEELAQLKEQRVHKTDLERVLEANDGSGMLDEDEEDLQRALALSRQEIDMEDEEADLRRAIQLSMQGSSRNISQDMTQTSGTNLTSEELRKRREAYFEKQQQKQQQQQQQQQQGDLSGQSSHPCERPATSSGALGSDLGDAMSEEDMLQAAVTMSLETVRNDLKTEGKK
USP14, sequence (P54578 whole entry, species assumed): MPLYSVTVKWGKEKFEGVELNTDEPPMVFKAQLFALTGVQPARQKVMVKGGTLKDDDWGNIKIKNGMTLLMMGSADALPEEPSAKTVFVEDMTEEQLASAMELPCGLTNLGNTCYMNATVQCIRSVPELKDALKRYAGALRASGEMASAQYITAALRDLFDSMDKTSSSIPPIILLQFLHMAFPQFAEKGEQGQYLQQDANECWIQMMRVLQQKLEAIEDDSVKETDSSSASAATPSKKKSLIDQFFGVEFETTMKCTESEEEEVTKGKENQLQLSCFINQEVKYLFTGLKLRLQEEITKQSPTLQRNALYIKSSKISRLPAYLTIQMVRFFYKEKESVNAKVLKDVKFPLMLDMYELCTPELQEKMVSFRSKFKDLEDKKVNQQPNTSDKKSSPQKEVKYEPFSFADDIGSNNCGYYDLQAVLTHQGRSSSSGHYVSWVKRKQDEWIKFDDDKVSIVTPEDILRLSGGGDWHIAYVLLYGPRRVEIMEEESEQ

Row | Signal to Background value (AMSH) | Signal to Background value (JosD1) | Signal to Background value (JosD2) | Signal to Background value (Otub2) | Signal to Background value (UCHL5) | Signal to Background value (USP14) | Substance | Signal to Background value (Ataxin3) | Signal to Background value (Ataxin3-like) | detectable activity (S/B>3) ([1]; listed as Ub-Rhodamine110) | detectable activity (S/B>3) ([1]; listed as Ub-rhodamine110) | detectable activity (S/B>3) [1] | relative catalytic efficiency (kcat/Km), fold higher than AMC derivative of Z-Leu-Arg-Gly-Gly peptide (isopeptidase T) [fold]
1 | 1.2 | 1.5 | 8.2 | 1.7 | 103 | – | ubiquitin-rhodamine110 [Ub-rho] | 1.3 | 1.6 | no detectable activity | little to no detectable activity | – | –
2 | 1.0 | 1.1 | 2.1 | 1.2 | 8.1 | 1.0 | ubiquitin-7-amino-4-methylcoumarin [Ub-AMC] | 0.9 | 1.1 | – | – | little to no detectable activity | ~8000
